Read-outs that look alike come from different tables or passages of the source.
Tests used:
NAMPT [1] = biological target: T1, NAMPT (Homo sapiens, UniProt P43490); assay: NAMPT activity assay by fluorescence of NMN derivative (HTS system), IC50 determination; format: biochemical; set-up: His-tag; made in house; host or cells: E. coli BL21-CodonPlus (DE3)-RIL
NAD level of HepG2 cells = assay: Cellular NAD level, spectrophotometric enzymatic cycling assay; format: cell-based, human; settings: HepG2, even at 100 μM, 24 hours
Text: F0 was the average d fluo rescen ce of si x backgr ound control s, repres ent ing zero activ ity from a si mul ated enz ym e reaction wit h on ly NAMP T but no NAM and com pound; F100 % was the average d fluorescen ce of si x ref erence cont rols, repr ese nt ing 100% activ ity from int act enz ym e reaction w ithou t com pound p ert ur bation.
Compounds with Activ ity% less tha n 40% were consi dered as inhi bi tor s and subj ect ed to a secondary screen inhi bition valida tion, in whi ch anot her backgr oun d cont rol (FC0), a si mul ated enz ym e reaction with NAMP Tand com pound but no NAM, was int roduced to elimina te the di rec t and /or ind irect inf lue nc e fro m compou nd. At thi s st age , the Activ ity% was cal culated accor ding t o e qua tion ( 2) :
In the screeni ng, the si gna l-to- noi se (S/N) rat io was cal cul ated usi ng the equa tion: (Mean signal -Mean backgr oun d) / SD backgr oun d4. Coe fficient s of vari atio n (CV) were the ratio of SD to mean. The Z ’f act or w as de term ine d by e qua tion (3) 5:
Z' −= (3)1−3(S Dhi ghsigna l+SDlowsigna l)
Mean hi gh signa l Meanlow signa l
Determ inat ion of IC50 for NAMPT inhi bitor s […]
vari ous con cent ration s were adde d int o 96-well pl ate. The pl ate was inc uba ted at 37 °C for 5 min after addition of 16.5 μl react ion buf fer cont aini ng N AMP T. The enz ym e reactions were ini tiated by 4.5 μl NAM (1.1 1 μM) follow ing NMN measurem ent as de scri bed above . […]
Cellul ar level of NAD was measured by spe ctrophot om etric enz ym atic cyc ling assa y, as de scri bed pr evi ousl y6-8. […]
Cell vi ability was de termine d by ou r previ ous method9 usi ng the Cell Counting Kit-8 (CCK -8, Dojindo, Ja pa n). […] Th e absor banc e at 450 nm (A450) was de tected by a pl ate reade r. […]
Briefly, cel ls were se ede d int o 96-well pl ates, cul tur ed overni ght , and trea ted with correspond ing com poun ds for 72 h. […] Sul for hoda mine B in the cells was di sso lved in 10 mmol/L Tris-HCl and was measured at 515 nm usi ng a multiw ell spect ropho tometer […]

NAMPT A244S mutant = biological target: T2, NAMPT A244S mutant (Homo sapiens, UniProt P43490, A244S); assay: NAMPT activity assay, A244S mutant; format: biochemical; settings: for IC50: same condition as wild-type, read-out: IC50 against A244S mutant
T2 construct: His-tag; made in house; host or cells: E. coli BL21-CodonPlus (DE3)-RIL
T2 sequence (P43490 whole entry A244S): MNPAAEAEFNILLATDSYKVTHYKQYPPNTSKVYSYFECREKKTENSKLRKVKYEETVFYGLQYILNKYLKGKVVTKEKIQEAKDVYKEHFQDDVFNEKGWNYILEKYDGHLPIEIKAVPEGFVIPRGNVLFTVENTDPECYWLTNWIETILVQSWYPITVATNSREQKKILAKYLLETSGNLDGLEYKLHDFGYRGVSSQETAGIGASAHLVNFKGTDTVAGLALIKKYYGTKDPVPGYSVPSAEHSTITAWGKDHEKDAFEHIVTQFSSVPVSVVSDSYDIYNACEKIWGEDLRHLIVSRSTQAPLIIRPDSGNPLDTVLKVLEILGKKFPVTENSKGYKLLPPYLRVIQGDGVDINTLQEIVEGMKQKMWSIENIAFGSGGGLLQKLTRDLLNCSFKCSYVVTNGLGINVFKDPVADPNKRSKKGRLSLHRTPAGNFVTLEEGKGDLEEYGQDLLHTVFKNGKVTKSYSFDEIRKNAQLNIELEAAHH

NAMPT I309Y mutant = biological target: T3, NAMPT I309Y mutant (Homo sapiens, UniProt P43490, I309Y); assay: NAMPT activity assay, I309Y mutant; format: biochemical; settings: for IC50: same condition as wild-type, read-out: IC50 against I309Y mutant
T3 construct: His-tag; made in house; host or cells: E. coli BL21-CodonPlus (DE3)-RIL
T3 sequence (P43490 whole entry I309Y): as the sequence (P43490 whole entry A244S) above, with S244A, I309Y counted along it

NAMPT H191A mutant = biological target: T4, NAMPT H191A mutant (Homo sapiens, UniProt P43490, H191A); assay: NAMPT activity assay, H191A mutant; format: biochemical; settings: for IC50: same condition as wild-type, read-out: IC50 against H191A mutant
T4 construct: His-tag; made in house; host or cells: E. coli BL21-CodonPlus (DE3)-RIL
T4 sequence (P43490 whole entry H191A): as the sequence (P43490 whole entry A244S) above, with H191A, S244A counted along it

A549 cells = assay: SRB assay in A549; format: cell-based, human; settings: Homo sapiens; A549, SRB, 10-fold concentration gradient; read-out: anti-proliferation IC50, initial screen
Description: (§1) Sulfor hod am ine B p rotei n st ai ning (SRB) assay
(§2) Cell pr oliferat ion was eva lua ted by sul for hod amine B pr ot ein st aini ng (SRB) assa y10-12.
(§3) Briefly, cel ls were se ede d int o 96-well pl ates, cul tur ed overni ght , and trea ted with correspond ing com poun ds for 72 h. Cells were the n fixe d with 10% trichl or oa cetic aci d and st ained with sul for hoda mine B (Sigm a). Sul for hoda mine B in the cells was di sso lved in 10 mmol/L Tris-HCl and was measured at 515 nm usi ng a multiw ell spect ropho tometer (VERSA max, Mol ecul ar Devi ces, Sunnyva le, CA). The inhi bi tion rat e on cell pr olif eratio n was cal culated for each well as (A515contr ol cells-A 515tr eated cells)/A515contr ol cells×100 % (A515:
(§4) OD va lue at 515 nm ). The averag e IC50 va lue s were de termine d by Logit method from at leas t t hr eei nde pe nde nt test s.

HepG2 cells [2] = assay: Sulforhodamine B protein staining (SRB) assay in HepG2; format: cell-based, human; settings: Homo sapiens
Description: as §1, §2, §3, §4

HCT116 cells = assay: SRB assay in HCT116; format: cell-based; settings: Homo sapiens, HCT-116; HCT116, SRB, 10-fold concentration gradient; read-out: anti-proliferation IC50, initial screen
Description: as §1, §2, §3, §4

Huh7-C cells = assay: CCK-8 assay in stem-like human hepatoma cell line Huh7-C; format: cell-based; settings: Huh7-C, treated 60 h, read-out: CCK-8 assay in Huh7-C: IC50
Description: (§5) Cellc ount ing k it-8 (CCK-8) assa y
Cell vi ability was de termine d by ou r previ ous method9 usi ng the Cell Counting Kit-8 (CCK -8, […]
(§6) 10 μl CCK-8 sol ution was adde d to the cul ture medium and inc ub ated at 37 °C for 1 h. Th e absor banc e at 450 nm (A450) was de tected by a pl ate reade r. Each e xperi ment w as carr ied out i n t riplic ate i n thr ee r eplic ate w ells.

HepG2 cells [3] = assay: Cell counting kit-8 (CCK-8) cell viability assay in HepG2; format: cell-based, human; settings: HepG2, 48 hours treatment, read-out: CCK-8 assay in HepG2: IC50
Description: as §5
Cell vi ability was de termine d by ou r previ ous method9 usi ng the Cell Counting Kit-8 (CCK -8, Dojindo, Ja pa n). In hu man he pa tocellu lar carcinom a cell line HepG 2, cells were seede d in 96-well plate and starve d for ove r 12 h with se rum-free DMEM at 60~ 70% conf lue nc y, the n trea ted wit h com pounds or ve hicle for 24 h to 72 h accor ding to expe riment requi rement s. […]
as §6

NAMPT [4] = biological target: T1, NAMPT; assay: Cellular thermal shift assay (CETSA / […]) in HepG2 cell lysate; format: binding; set-up: endogenous in cells; host or cells: HepG2; settings: HepG2 cell lysate, 100 μM
NAMPT [5] = biological target: T1, NAMPT; assay: Cellular thermal shift assay (CETSA / […]) in intact HepG2 cells; format: cell-based; set-up: endogenous in cells; host or cells: HepG2; settings: for CETSA target binding of NAMPT in intact cell: intact HepG2 cells, 10 μM, 3 h
NAMPT [6] = biological target: T1, NAMPT; set-up: His-tag; made in house; host or cells: E. coli BL21-CodonPlus (DE3)-RIL; settings: previous study of the authors ref 7; read-out: NAMPT inhibition activity IC50; cited from earlier work
[7] = recombinant human NAMPT, mean ± s.e., read-out: NAMPT IC50
[8] = wild type, run beside the mutants, read-out: IC50 against wild-type NAMPT (mutagenesis study)
[9] = HepG2, 72 h, HepG2, second test, 2-fold concentration gradient, 72 hours, read-out: SRB assay in HepG2: IC50
[10] = HepG2, HepG2, SRB, 10-fold concentration gradient, read-out: anti-proliferation IC50, initial screen

T1 sequence (P43490 whole entry): as the sequence (P43490 whole entry A244S) above, with S244A counted along it

IC50 (NAMPT [1]; [7])	change in IC50/potency versus wild-type NAMPT, A244S (NAMPT A244S mutant)	IC50 (NAMPT A244S mutant)	change in IC50/potency versus wild-type NAMPT, I309Y (NAMPT I309Y mutant)	IC50 (NAMPT I309Y mutant)	change in IC50 versus wild-type NAMPT, H191A (NAMPT H191A mutant)	IC50 (NAMPT H191A mutant)	IC50 (A549 cells)	IC50 (HepG2 cells [2]; [9])	IC50 (HepG2 cells [2]; [10])	IC50 (HCT116 cells)	IC50 (Huh7-C cells)	IC50 (HepG2 cells [3]; Homo sapiens, HepG2, 48 h)	CETSA melting curve shift of NAMPT in cell lysate (NAMPT [4])	CETSA target binding of NAMPT in intact cell (NAMPT [5])	SMILES	IC50 (NAMPT [1]; [8])	also measured
															O=S(=O)(c1ccc(NC(=S)NCc2ccncc2)cc1)N1CCCCC1 [compound 733, reference compound]		inhibition on NAMPT activity (in words) (NAMPT [1]): no inhibition; effect on cellular NAD level (in words) (NAD level of HepG2 cells): did not show any effect
23.7 ± 7.8 nM	2 to 3 fold	37.7 ± 1.9 nM	2 to 3 fold	57.6 ± 3.71 nM	no change	25.2 ± 2.42 nM	< 5000 nM	~3000 nM	< 5000 nM	< 5000 nM	514 ± 83.3 nM	615 ± 42.4 nM	obvious right shifts	directly bound with NAMPT	O=S(=O)(c1ccc(NC(=S)NCc2cccnc2)cc1)N1CCN(Cc2ccc(C(F)(F)F)cc2)CC1 [MS34]	24.8 ± 1.87 nM	
21.7 nM	2 to 3 fold	36.1 ± 4.11 nM	2 to 3 fold	58.3 ± 2.3 nM	no change	25.3 ± 2.36 nM	< 5000 nM	~3000 nM	< 5000 nM	< 5000 nM	308 ± 32.2 nM	326 ± 73.3 nM	obvious right shifts	directly bound with NAMPT	CC(C)(C)OC(=O)N1CCN(S(=O)(=O)c2ccc(NC(=S)NCc3cccnc3)cc2)CC1 [MS1]	24.6 ± 2.65 nM	IC50 (HepG2 cells [3]): 326 nM; ITDRFCETSA of NAMPT in cell lysate versus intact cells (NAMPT [5]; 62 °C, lysate value relative to intact cells): approximately 100 fold
															O=C(OC[C@H]1O[C@@H](OC(=O)c2cc(O)c(O)c(OC(=O)c3cc(O)c(O)c(O)c3)c2)[C@H](OC(=O)c2cc(O)c(O)c(OC(=O)c3cc(O)c(O)c(O)c3)c2)[C@@H](OC(=O)c2cc(O)c(O)c(OC(=O)c3cc(O)c(O)c(O)c3)c2)[C@@H]1OC(=O)c1cc(O)c(O)c(OC(=O)c2cc(O)c(O)c(O)c2)c1)c1cc(O)c(O)c(OC(=O)c2cc(O)c(O)c(O)c2)c1 [gallotannin]		IC50 (NAMPT [6]): 1300 ± 100 nM

Reference: PMC4603696, “Discovery and characterization of novel small-molecule inhibitors targeting nicotinamide phosphoribosyltransferase” (Scientific Reports, 2015)
